# Measurements as given in US7932254B2, “Pyrrolopyrazine kinase inhibitors” (Roche Palo Alto, priority 2008, dated 2011).
# System: not given
# Experiment: not given
# Details: not given
row,melting point,Structure (SMILES)
1,233 to 234 °C,"CN1CCOc2cc(-c3cnc4[nH]cc(C(=O)C(C)(C)C)c4n3)ccc21 [Compound I-3, 2,2-Dimethyl-1-[2-(4-methyl-3,4-dihydro-2H-benzo[1,4]oxazin-7-yl)-5H-pyrrolo[2,3-b]pyrazin-7-yl]-propan-1-one]"
2,> 300 °C,"CC(C)(C)C(=O)c1c[nH]c2ncc(-c3ccc4c(c3)NC(=O)C(C)(C)O4)nc12 [Compound I-7, 6-[7-(2,2-Dimethyl-propionyl)-5H-pyrrolo[2,3-b]pyrazin-2-yl]-2,2-dimethyl-4H-benzo[1,4]oxazin-3-one]"
3,255 to 265 °C,"CN1CCOc2ccc(-c3cnc4[nH]cc(C(=O)C(C)(C)C)c4n3)cc21 [Compound I-8, 2,2-Dimethyl-1-[2-(4-methyl-3,4-dihydro-2H-benzo[1,4]oxazin-6-yl)-5H-pyrrolo[2,3-b]pyrazin-7-yl]-propan-1-one]"
4,> 350 °C,"CC(C)(C)C(=O)c1c[nH]c2ncc(-c3ccc4c(c3)NC(=O)CO4)nc12 [Compound I-9, 6-[7-(2,2-Dimethyl-propionyl)-5H-pyrrolo[2,3-b]pyrazin-2-yl]-4H-benzo[1,4]oxazin-3-one]"
5,277 to 278 °C,"CN1C(=O)COc2ccc(-c3cnc4[nH]cc(C(=O)C(C)(C)C)c4n3)cc21 [Compound I-10, 6-[7-(2,2-Dimethyl-propionyl)-5H-pyrrolo[2,3-b]pyrazin-2-yl]-4-methyl-4H-benzo[1,4]oxazin-3-one]"
6,285 to 292 °C,"CC(C)(C)C(=O)c1c[nH]c2ncc(-c3cc(NS(=O)(=O)c4ccc(N)cc4)c4cc[nH]c4c3)nc12 [Compound I-19, 4-Amino-N-{6-[7-(2,2-dimethyl-propionyl)-5H-pyrrolo[2,3-b]pyrazin-2-yl]-1H-indol-4-yl}-benzenesulfonamide]"
7,> 300 °C,"CC1(C(=O)c2c[nH]c3ncc(-c4ccc5c(c4)NC(=O)C(C)(C)O5)nc23)CCCCC1 [Compound I-21, 2,2-Dimethyl-6-[7-(1-methyl-cyclohexanecarbonyl)-5H-pyrrolo[2,3-b]pyrazin-2-yl]-4H-benzo[1,4]oxazin-3-one]"
8,> 300 °C,"CC(C)(C)C(=O)c1c[nH]c2ncc(-c3ccc4c(c3)SCC(=O)N4)nc12 [Compound I-22, 7-[7-(2,2-Dimethyl-propionyl)-5H-pyrrolo[2,3-b]pyrazin-2-yl]-4H-benzo[1,4]thiazin-3-one]"
9,> 300 °C,"CC(C)(C)C(=O)c1c[nH]c2ncc(-c3cc(NS(C)(=O)=O)c4cc[nH]c4c3)nc12 [Compound I-26, N-{6-[7-(2,2-Dimethyl-propionyl)-5H-pyrrolo[2,3-b]pyrazin-2-yl]-1H-indol-4-yl}-methanesulfonamide]"
10,275 to 285 °C,"CC(C)(C)C(=O)c1c[nH]c2ncc(-c3cc(NS(=O)(=O)c4ccccc4)c4cc[nH]c4c3)nc12 [Compound I-27, N-{6-[7-(2,2-Dimethyl-propionyl)-5H-pyrrolo[2,3-b]pyrazin-2-yl]-1H-indol-4-yl}-benzenesulfonamide]"
11,264 to 266 °C,"CC(C)(C)C(=O)c1c[nH]c2ncc(-c3cc(NS(=O)(=O)c4ccc(Cl)cc4)c4cc[nH]c4c3)nc12 [Compound I-33, 4-Chloro-N-{6-[7-(2,2-dimethyl-propionyl)-5H-pyrrolo[2,3-b]pyrazin-2-yl]-1H-indol-4-yl}-benzenesulfonamide]"
12,295 to 297 °C,"CC(C)(C)C(=O)c1c[nH]c2ncc(-c3cc(NS(=O)(=O)c4ccc(F)cc4)c4cc[nH]c4c3)nc12 [Compound I-34, N-{6-[7-(2,2-Dimethyl-propionyl)-5H-pyrrolo[2,3-b]pyrazin-2-yl]-1H-indol-4-yl}-4-fluoro-benzenesulfonamide]"
13,231 to 233 °C,"COc1ccc(S(=O)(=O)Nc2cc(-c3cnc4[nH]cc(C(=O)C(C)(C)C)c4n3)cc3[nH]ccc23)cc1 [Compound I-35, N-{6-[7-(2,2-Dimethyl-propionyl)-5H-pyrrolo[2,3-b]pyrazin-2-yl]-1H-indol-4-yl}-4-methoxy-benzenesulfonamide]"
14,305 to 307 °C,"CC(C)(C)C(=O)c1c[nH]c2ncc(-c3cc(NS(=O)(=O)c4cccnc4)c4cc[nH]c4c3)nc12 [Compound I-37, Pyridine-3-sulfonic acid {6-[7-(2,2-dimethyl-propionyl)-5H-pyrrolo[2,3-b]pyrazin-2-yl]-1H-indol-4-yl}-amide]"
15,243 to 244 °C,"CN1CCOc2cc(-c3cnc4[nH]cc(C(=O)C5(C)CCCCC5)c4n3)ccc21 [Compound I-39, (1-Methyl-cyclohexyl)-[2-(4-methyl-3,4-dihydro-2H-benzo[1,4]oxazin-7-yl)-5H-pyrrolo[2,3-b]pyrazin-7-yl]-methanone]"
16,194 to 196 °C,"CC(C)(C)C(=O)c1c[nH]c2ncc(-c3ccc4c(ccn4Cc4ccccn4)c3)nc12 [Compound I-46, 2,2-Dimethyl-1-[2-(1-pyridin-2-ylmethyl-1H-indol-5-yl)-5H-pyrrolo[2,3-b]pyrazin-7-yl]-propan-1-one]"
17,170 to 171 °C,"CC(C)(C)C(=O)c1c[nH]c2ncc(-c3ccc4c(ccn4Cc4cccnc4)c3)nc12 [Compound I-48, 2,2-Dimethyl-1-[2-(1-pyridin-3-ylmethyl-1H-indol-5-yl)-5H-pyrrolo[2,3-b]pyrazin-7-yl]-propan-1-one]"
18,241 to 243 °C,"CC(C)(C)C(=O)c1c[nH]c2ncc(-c3ccc4c(ccn4Cc4ccncc4)c3)nc12 [Compound I-49, 2,2-Dimethyl-1-[2-(1-pyridin-4-ylmethyl-1H-indol-5-yl)-5H-pyrrolo[2,3-b]pyrazin-7-yl]-propan-1-one]"
19,263 to 265 °C,"CN1CC=C(c2c[nH]c3ccc(-c4cnc5[nH]cc(C(=O)C(C)(C)C)c5n4)cc23)CC1 [Compound I-50, 2,2-Dimethyl-1-{2-[3-(1-methyl-1,2,3,6-tetrahydro-pyridin-4-yl)-1H-indol-5-yl]-5H-pyrrolo[2,3-b]pyrazin-7-yl}-propan-1-one]"
20,260 to 263 °C,"CC(C)(C)C(=O)c1c[nH]c2ncc(-c3cc(N4CCCC4)ccn3)nc12 [Example 6, 2,2-Dimethyl-1-[2-(4-pyrrolidin-1-yl-pyridin-2-yl)-5H-pyrrolo[2,3-b]pyrazin-7-yl]-propan-1-one]"
21,276 to 278 °C,"CC(C)(C)C(=O)c1c[nH]c2ncc(-c3ccccn3)nc12 [Example 8, 2,2-Dimethyl-1-(2-pyridin-2-yl-5H-pyrrolo[2,3-b]pyrazin-7-yl)-propan-1-one]"
22,199 to 200.1 °C,"CCc1cccc(-c2cnc3[nH]cc(C(=O)C(C)(C)C)c3n2)c1 [Example 9, 1-[2-(3-Ethyl-phenyl)-5H-pyrrolo[2,3-b]pyrazin-7-yl]-2,2-dimethyl-propan-1-one]"

# Target: JAK3 (recombinant human kinase domain) (Homo sapiens, UniProt P52333)
# Experiment: Determination of IC50 of Janus Kinase (JAK) inhibition, radioactive end-point 33P-ATP assay, JAK3
# Assay type: biochemical
# Details: ATP 1.5 uM, peptide 50 uM, 20 minutes, room temperature, read-out: IC50 h-jak3-sf21-c
# From the text: Determination of IC50 of Janus Kinase (JAK) Inhibition: […]
# Chain of JAK3 (recombinant human kinase domain) (P52333 822-1111 limits assumed): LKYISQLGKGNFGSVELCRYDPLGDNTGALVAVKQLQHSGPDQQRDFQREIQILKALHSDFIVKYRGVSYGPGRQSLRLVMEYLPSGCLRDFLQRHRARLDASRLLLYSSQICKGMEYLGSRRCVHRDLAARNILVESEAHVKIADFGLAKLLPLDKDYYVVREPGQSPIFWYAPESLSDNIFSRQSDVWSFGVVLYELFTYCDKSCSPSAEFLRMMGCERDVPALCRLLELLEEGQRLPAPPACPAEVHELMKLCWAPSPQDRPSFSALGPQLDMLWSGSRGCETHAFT
row,IC50,Structure (SMILES)
1,152 nM,"CC(C)(C)C(=O)c1c[nH]c2ncc(-c3ccc4c(ccn4Cc4ccncc4)c3)nc12 [Compound I-49, 2,2-Dimethyl-1-[2-(1-pyridin-4-ylmethyl-1H-indol-5-yl)-5H-pyrrolo[2,3-b]pyrazin-7-yl]-propan-1-one]"
2,155 nM,"CN1CC=C(c2c[nH]c3ccc(-c4cnc5[nH]cc(C(=O)C(C)(C)C)c5n4)cc23)CC1 [Compound I-50, 2,2-Dimethyl-1-{2-[3-(1-methyl-1,2,3,6-tetrahydro-pyridin-4-yl)-1H-indol-5-yl]-5H-pyrrolo[2,3-b]pyrazin-7-yl}-propan-1-one]"
3,32.4 nM,"CC1(C(=O)c2c[nH]c3ncc(-c4ccc5[nH]ccc5c4)nc23)CCCCC1 [Compound I-52, [2-(1H-Indol-5-yl)-5H-pyrrolo[2,3-b]pyrazin-7-yl]-(1-methyl-cyclohexyl)-methanone]"
4,158 nM,"CN(c1cc(-c2cnc3[nH]cc(C(=O)C(C)(C)C)c3n2)cc2[nH]ccc12)S(=O)(=O)c1ccc(N)cc1 [Compound I-54, 4-Amino-N-{6-[7-(2,2-dimethyl-propionyl)-5H-pyrrolo[2,3-b]pyrazin-2-yl]-1H-indol-4-yl}-N-methyl-benzenesulfonamide]"
